Data reported in US20240335465A1 (University of Virginia Patent Foundation, priority 2021, published 2024).

Assays:
HEK293-TrLR cells = assay: HDR and NHEJ assay using Traffic Light Reporter; type: cell-based, human
Experimental: TrLR-integrated HEK293 cells were selected through exposure to 5 μg/ml puromycin for 2 weeks. […] 8 hours following this procedure, cells were transfected with pCVL SFFV d14GFP Donor (Addgene Cat #31475), pCBASceI (Addgene Cat #26477)), or Donor+SceI using Lipofectamine 3000. 72 hours post-transfection, cells were trypsinized, collected, and analyzed with an Attune NxT flow cytometer (Thermofisher). To quantify the DNA repair events, ˜10,000-30,000 cells were acquired on an Attune NxT cytometer and analyzed using FCS Express software. Single cell events were determined by gating on the area against the width of the forward scatter pulse signal. Debris removal was performed by excluding events with very low forward and side scatter. For determining % of GFP and mCherry positive cells we established positive and negative populations using mock transfections as negative controls and GFP or mCherry transfected samples as Fluorescence Minus One controls.

γH2AX = γH2AX immunofluorescence (human RPE, THP1 cells); type: cell-based
Experimental: Immunofluorescence Staining: 16,500 adherent cells/cm^2 were plated on a gelatin coated 8-chamber slide (VWR, Catalogue #62407-296) and treated as indicated. Media was removed and cells were washed with 1×PBS with Ca^2+/Mg^2+ and fixed with 4% PFA for 20 minutes. Fixed cells were permeabilized with PBS+0.1% Triton-X and washed 3 times with PBS+0.1% Tween20. After treatment as indicated, non-adherent THP1 cells were collected by centrifugation, washed in cold PBS and fixed in PFA. Post-fixation, they were washed with PBS, spotted on gelatin coated “PTFE” Printed Slides (Electron Microscopy Sciences, Cat #63424-06), and air-dried. For γH2AX staining, permeabilized cells were blocked in Serum-free DAKO Protein Block (Agilent, Catalogue #X0909) for 1 hr at room temperature. Cells were incubated in primary antibody (γH2AX, 1:500; anti-HA, 1:100; Table 1) in DAKO antibody diluent at 4° C. overnight on a rocker platform. U2OS-STING cells undergoing Rad51 staining were first fixed in methanol for 20 minutes in −20° C., blocked for 1 hr with donkey block (2% normal donkey serum, 1% BSA, 0.1% Triton X 100, 0.05% Tween20, 0.05% Sodium Azide in PBS), then finally incubated in an anti-Rad51 antibody overnight at 4° C. (Bio-academia Cat #70-001, 1:6000 in 5% milk in TBST). For RPA70 staining, cells were fixed in 4% PFA at room temperature for 20 minutes and blocked in Cell Signaling blocking buffer (1×PBS/5% normal donkey serum/0.3% Triton™ X-100) for 1 hr in room temperature then incubated in an RPA70 antibody (Cell Signaling Cat #2267, 1:50 in blocking buffer) overnight at 4° C. Primary antibody was washed 3 times and incubated with secondary antibodies (Invitrogen, Alexa 555, 488) for 1 hr at room temperature. Coverslips were mounted on the cells with ProLong™ Gold Antifade mounting media with DAPI (Thermofisher, Catalogue #P36935). All images were obtained by confocal microscopy (Nikon, C2).

Nematostella vectensis = assay: DDR in starlet sea anemones; type: in vivo; settings: whole animals; cGAMP in digitonin solution 10 minutes; doxorubicin 2 μM; 16 hours
Description: Starlet sea anemones: Wild type, laboratory maintained, Self-sustaining Nematostella vectensis culture containing of 3-6 months old male and female animals (Putnam et al., 2007) was a kind gift from Timothy J. Jegla (Penn State University Department of Biology). They were maintained in 6-well plates containing water with Instant Ocean® Aquarium Sea Salt (50 gm/l) and fed brine shrimp. […] Permeabilization solution was removed and the animals returned to maintenance sea salt water. Doxorubicin was added to the maintenance sea salt water to a final concentration of 2 μM. 16 hours post treatment. N. vectensis were collected and washed once with cold PBS before the addition of 200 μl RIPA buffer. Samples were homogenized by sonication and centrifuged at 4° C. to remove debris. Soluble lysates were quantified for protein analysis by western blot.

U2OS-STING cells [1] = assay: RAD51 and RPA70 foci in EdU+ U2OS-STING cells; type: cell-based, human; settings: EdU-positive S-phase cells, Camptothecin 5 μM 16 hours
Experimental: Immunofluorescence Staining: 16,500 adherent cells/cm^2 were plated on a gelatin coated 8-chamber slide (VWR, Catalogue #62407-296) and treated as indicated. Media was removed and cells were washed with 1×PBS with Ca^2+/Mg^2+ and fixed with 4% PFA for 20 minutes. Fixed cells were permeabilized with PBS+0.1% Triton-X and washed 3 times with PBS+0.1% Tween20. After treatment as indicated, non-adherent THP1 cells were collected by centrifugation, washed in cold PBS and fixed in PFA. Post-fixation, they were washed with PBS, spotted on gelatin coated “PTFE” Printed Slides (Electron Microscopy Sciences, Cat #63424-06), and air-dried. For γH2AX staining, permeabilized cells were blocked in Serum-free DAKO Protein Block (Agilent, Catalogue #X0909) for 1 hr at room temperature. Cells were incubated in primary antibody (γH2AX, 1:500; anti-HA, 1:100; Table 1) in DAKO antibody diluent at 4° C. overnight on a rocker platform. […]
EdU incorporated cells were detected by confocal microscopy after Click-iT® EdU labeling following the manufacturer's protocol (Click-iT™ EdU Alexa Fluor™ 594 Imaging Kit, Thermo Fisher Cat #C10339).

NAD^+ = assay: NAD+ quantification; type: cell-based, human; settings: WT and STING−/− THP1, cGAMP
Crassostrea virginica = assay: DDR in oysters after adductor muscle injection; type: in vivo; settings: hemocytes; cGAMP 25 μg/50 gm, doxorubicin 1 μg/50 gm oyster weight, 16 hours
Experimental: Oysters: Wild adult eastern oysters (Crassostrea virginica) of both male and female sexes ranging from 2 cm-7 cm in length (1 to 3 years in age) were collected from a natural oyster reef on Virgnia's Eastern Shore. Following collection, the diploid oysters were placed on ice and transported approximately 3 h to the University of Virginia main campus in Charlottesville, VA. There they were stored in an aerated aquarium containing water supplemented with Instant Ocean® Aquarium Sea Salt (50 gm/l). […] Treated oysters were kept at 4° C. in the dark for 16 hours after which they were shucked, had their hemolymph/tissues harvested for analysis by western blotting, and dead oyster and shell were disposed of.

U2OS-STING cells [2] = assay: RIF1 and phospho-53BP1 foci immunofluorescence; type: cell-based, human; settings: pretreated with cGAMP, then etoposide or camptothecin
Experimental: Immunofluorescence Staining: 16,500 adherent cells/cm^2 were plated on a gelatin coated 8-chamber slide (VWR, Catalogue #62407-296) and treated as indicated. Media was removed and cells were washed with 1×PBS with Ca^2+/Mg^2+ and fixed with 4% PFA for 20 minutes. Fixed cells were permeabilized with PBS+0.1% Triton-X and washed 3 times with PBS+0.1% Tween20. After treatment as indicated, non-adherent THP1 cells were collected by centrifugation, washed in cold PBS and fixed in PFA. Post-fixation, they were washed with PBS, spotted on gelatin coated “PTFE” Printed Slides (Electron Microscopy Sciences, Cat #63424-06), and air-dried. For γH2AX staining, permeabilized cells were blocked in Serum-free DAKO Protein Block (Agilent, Catalogue #X0909) for 1 hr at room temperature. Cells were incubated in primary antibody (γH2AX, 1:500; anti-HA, 1:100; Table 1) in DAKO antibody diluent at 4° C. overnight on a rocker platform. U2OS-STING cells undergoing Rad51 staining were first fixed in methanol for 20 minutes in −20° C., blocked for 1 hr with donkey block (2% normal donkey serum, 1% BSA, 0.1% Triton X 100, 0.05% Tween20, 0.05% Sodium Azide in PBS), then finally incubated in an anti-Rad51 antibody overnight at 4° C. (Bio-academia Cat #70-001, 1:6000 in 5% milk in TBST). […]

PARP = PARP activity assay; type: cell-based, human
Experimental: Post cGAMP treatment, cells were collected by centrifugation and washed with cold PBS once and resuspended in Cell Extraction Buffer. PARP activity was measured using the Chemiluminescent Assay Kit (R&D, Catalog Number: 4685-096-K) following manufacturer's protocol.

PARP1, PARP2, Tankyrase = PARP1, PARP2, Tankyrase abundance immunoblot; type: cell-based, human
[3] = test system: HEK293-ACE reporter cells; assay: ACE CRISPR/Cas9 reporter system; type: cell-based, human; settings: cGAMP transfection; interferon β 50 ng/ml
Experimental: ACE CRISPR/Cas9 reporter system: The ACE reporter (Addgene #109428) described previously (Aird et al., 2018; St. Martin et al., 2018) was integrated in HEK293 cells using lentiviral transduction. ACE reporter integrated cells (GFP+) were sorted in a Becton Dickinson Influx Cell Sorter and propagated. […] 72 hours post RNP transfection, cells were trypsinized, collected, and analyzed with an Attune NxT flow cytometer (Thermofisher). To quantify the HDR DNA repair events, ˜10,000-30,000 cells were acquired on an Attune NxT cytometer and analyzed using FCS Express software. Single cell events were determined by gating on the area against the width of the forward scatter pulse signal. Debris removal was performed by excluding events with very low forward and side scatter. For determining % of mCherry positive cells we established positive and negative populations using mock transfections as negative controls and mCherry transfected samples as Fluorescence Minus One controls.

For `Nc1nc2c(ncn2[C@@H]2O[C@@H]3COP(=O)(O)O[C@H]4[C@@H](O)[C@H](n5cnc6c(N)ncnc65)O[C@@H]4COP(=O)(O)O[C@@H]2[C@@H]3O)c(=O)[nH]1` [cGAMP, cyclic guanosine monophosphate-adenosine monophosphate], the “HDR suppression by cGAMP in rucaparib-pretreated cells” value (HEK293-TrLR cells; 1 μM Rucaparib) was “ineffective at HDR suppression in cells pretreated with rucaparib”, the “HDR in ATM inhibitor treated cells, mock vs. cGAMP” value (HEK293-TrLR cells; 25 μM KU-55933) was “still suppressed HDR” and the HDR frequency (HEK293-TrLR cells; I-SceI with donor, 72 hours) was “significantly reduced the prevalence of HDR”. The NHEJ frequency (HEK293-TrLR cells; I-SceI, 72 hours) was “unaffected in either case”, the “cGAMP-induced pan-nuclear γH2AX staining” value (γH2AX; WT, STING−/−, shIFNAR THP1 cells, 16 hours) was “suppressed in STING^−/− but not in sh-IFNAR THP1 cells” and the γH2AX staining pattern (γH2AX; human RPE cells, doxorubicin 2 hours, cGAMP or HT-DNA 6 hours) was “γH2AX marked by pan-nuclear staining”. For the same molecule, the “TBK1 phosphorylation (pTBK1)” value (Nematostella vectensis) was “TBK1 phosphorylation”, the γH2AX (Nematostella vectensis) was “elevated levels of γH2AX” and the “DNA damage-induced RAD51 and RPA foci formation” value (U2OS-STING cells [1]) was “suppressed DNA damage-induced RAD51 and RPA foci formation in EdU-positive S-phase cells”. For the same molecule, the “abundance of cellular NAD^+” value (NAD^+) was “significantly reduced the abundance of cellular NAD^+ in a STING-dependent manner”, the “TBK1 phosphorylation (pTBK1)” value (Crassostrea virginica) was “TBK1 phosphorylation” and the γH2AX (Crassostrea virginica) was “elevated levels of γH2AX”. The “RIF1 and phospho-53BP1 foci formation” value (U2OS-STING cells [2]) was “augmented the RIF1 and phospho-53BP1 foci formation”, the “PARP enzymatic activity in cell lysates” value (PARP; THP1, cGAMP 6 hours, Rucaparib 10 μM, 6 hr) was “reduction in the PARP enzymatic activity” and the “STING dependence of cGAMP-induced reduction in PARP enzymatic activity” value (PARP; WT and STING−/− THP1) was “dependent on STING”. For the same molecule, the “abundance of PARP1” value (PARP1, PARP2, Tankyrase; THP1 and HEK293 cells) was “significantly augmented”, the “abundance of PARP1, PARP2, Tankyrase” value (PARP1, PARP2, Tankyrase; cGAMP-stimulated cells) was “no decrease in the abundance of PARP1, PARP2, or Tankyrase” and the “HDR-mediated CRISPR editing (mCherry positive cells)” value [3] was “significantly dampened HDR-mediated CRISPR editing”.
